Laboratory results published in ChEMBL document CHEMBL3870307, “5-HT7 receptor modulators: Amino groups attached to biphenyl scaffold determine functional activity” (Eur J Med Chem, 2016).
The source made the active and inactive calls. The calls are words filed in the database; no cut-off is given here.

Legend:
[1] = target: T1, 5-hydroxytryptamine receptor 7 (Homo sapiens, UniProt P34969); assay: Displacement of [3H]D-lysergic acid diethylamide from 5HT7R (unknown origin) expressed in HEK293 cell membranes incubated for 1.5 hrs in absence of light by liquid scintillation counting
[2] = target: T1, 5-hydroxytryptamine receptor 7; assay: Agonist activity at human 5-HT7R expressed in HEK293 cells assessed as induction of cAMP levels at 10 uM treated for 10 mins measured after 30 mins by D2-dye based fluorescence assay relative to serotonin; assay type: functional, cell-based
[3] = target: T1, 5-hydroxytryptamine receptor 7; assay: Antagonist activity at human 5-HT7R expressed in HEK293 cells assessed as inhibition of serotonin stimulated cAMP levels at 10 uM preincubated for 10 mins followed by serotonin stimulation after 30 mins by D2-dye based fluorescence assay; assay type: functional, cell-based
[4] = target: T1, 5-hydroxytryptamine receptor 7; assay: Agonist activity at human 5-HT7R expressed in HEK293 cells assessed as induction of cAMP levels treated for 10 mins measured after 30 mins by D2-dye based fluorescence assay; assay type: functional, cell-based
[5] = target: T1, 5-hydroxytryptamine receptor 7; assay: Antagonist activity at human 5-HT7R expressed in HEK293 cells assessed as inhibition of serotonin stimulated-cAMP levels preincubated for 10 mins followed by serotonin stimulation after 30 mins by D2-dye based fluorescence assay; assay type: functional, cell-based
[6] = target: T1, 5-hydroxytryptamine receptor 7; assay: Antagonist activity at human 5-HT7R expressed in HEK293 cells assessed as inhibition of serotonin stimulated-cAMP levels at 100 uM preincubated for 10 mins followed by serotonin stimulation after 30 mins by D2-dye based fluorescence assay; assay type: functional, cell-based
[7] = target: T1, 5-hydroxytryptamine receptor 7; assay: Displacement of [3H]D-lysergic acid diethylamide from 5HT7R (unknown origin) expressed in CHO-K1 cell membranes incubated for 1.5 hrs in absence of light by liquid scintillation counting

T1 sequence (P34969 whole entry): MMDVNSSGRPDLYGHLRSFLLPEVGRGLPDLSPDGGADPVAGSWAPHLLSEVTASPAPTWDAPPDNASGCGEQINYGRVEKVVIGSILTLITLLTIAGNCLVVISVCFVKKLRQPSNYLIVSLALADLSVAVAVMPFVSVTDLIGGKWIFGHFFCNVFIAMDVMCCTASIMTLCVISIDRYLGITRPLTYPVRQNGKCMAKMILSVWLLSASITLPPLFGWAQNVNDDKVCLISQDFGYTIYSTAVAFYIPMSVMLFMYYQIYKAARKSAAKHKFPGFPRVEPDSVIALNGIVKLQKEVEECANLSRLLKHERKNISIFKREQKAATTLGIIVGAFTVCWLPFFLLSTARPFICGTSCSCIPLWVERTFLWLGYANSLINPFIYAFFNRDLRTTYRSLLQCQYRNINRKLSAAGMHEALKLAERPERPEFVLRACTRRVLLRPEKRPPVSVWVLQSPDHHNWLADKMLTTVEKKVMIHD

Row | SMILES | Ki [1] | Emax [2] | Imax [3] | EC50 [4] | IC50 [5] | inhibition [6] | Ki [7]
1 | CNCc1ccc(C)c(-c2ccccc2OC)c1 | 15 nM | 55.5% | 2.49% | 3200 nM |  |  | 
2 | COc1ccccc1-c1cc(CN2CCN(c3ccccc3OC)CC2)cc2c1OCO2 | 34 nM | -1.56% | 93.7% |  | 19.8 µM | Active | 
3 | COc1ccccc1-c1cccc(CN2CCN(c3ccccc3OC)CC2)c1 |  |  |  |  |  |  | 15 nM
4 | COc1ccccc1-c1cc(CN2CCC(C)CC2)cc2c1OCO2 | 691 nM | 7.6% | 15.6% |  |  |  | 
5 | CNCc1cc2c(c(-c3ccccc3OC)c1)OCO2 | 1480 nM | 13.6% | 8.4% |  |  |  | 
6 | COc1ccccc1-c1cc(CN2CCC(C)CC2)ccc1OC | 3060 nM | -1.14% | 7.74% |  |  |  | 
7 | COc1ccccc1-c1cc(CN2CCN(c3ccccc3OC)CC2)ccc1OC | 79 nM | -2.42% | 91.6% |  | 5.57 µM | Active | 
8 | CNCc1ccc(Cl)c(-c2ccccc2OC)c1 | 5.2 nM | 66.8% | 4.66% | 550 nM |  |  | 
9 | COc1ccccc1-c1cc(CN2CCC(C)CC2)ccc1Cl | 389 nM | -14.4% | 52.3% |  |  |  | 
10 | COc1ccccc1-c1cc(CN2CCN(c3ccccc3OC)CC2)ccc1Cl | 73 nM | -7.72% | 91% |  | 23.1 µM | Active | 
11 | COc1ccccc1-c1cc(CN2CCC(C)CC2)ccc1C | 1120 nM | 2.53% | 29% |  |  |  | 
12 | COc1ccccc1-c1cc(CN2CCN(c3ccccc3OC)CC2)ccc1C | 18 nM | 14% | 69.3% |  | 6.35 µM | Active | 
13 | CNCc1ccc(OC)c(-c2ccccc2OC)c1 | 648 nM | 11% | 2.25% |  |  |  | 
14 | CC1CCN(CC[C@H]2CCCN2S(=O)(=O)c2cccc(O)c2)CC1 |  |  | 100% |  |  |  | 

More lines, main results first:

Row | Ki [1] | Emax [2] | Imax [3] | EC50 [4] | IC50 [5] | inhibition [6] | SMILES | Ki [7]
15 | 226 nM | 24.5% | -0.87% |  |  |  | CNCc1cccc(-c2ccccc2OC)c1 | 
16 | 1020 nM | 28.8% | 4.54% |  |  |  | COc1ccccc1-c1cc(CN(C)C)ccc1OC | 
17 | 1040 nM | 8.59% | 39% |  |  |  | COc1ccccc1-c1cccc(CN2CCC(C)CC2)c1 | 
18 | 772 nM | 3.97% | 13.5% |  |  |  | COc1ccccc1-c1cc(CN(C)C)cc2c1OCO2 | 
19 | 18 nM | 27.6% | 10.3% |  |  |  | COc1ccccc1-c1cc(CN(C)C)ccc1Cl | 
20 | 23 nM | 33.3% | 6.61% |  |  |  | COc1ccccc1-c1cc(CN(C)C)ccc1C | 
21 | 126 nM | 15.4% | 40.8% |  |  |  | COc1ccccc1-c1cccc(CN(C)C)c1 | 
